US4656269A, “Histidine derivatives” (Kissei Pharmaceutical Co., Ltd., priority 1986, dated 1987)

Columns and labels:
human renin = biological target: T1, human renin (Homo sapiens, UniProt P00797); assay: Human renin-sheep renin substrate reaction system in vitro (angiotensin I by radioimmunoassay); type: biochemical; conditions: pH 7.4, 15 minutes, 37° C., read-out: IC50 (molar concentration)
T1 sequence (P00797 67-406): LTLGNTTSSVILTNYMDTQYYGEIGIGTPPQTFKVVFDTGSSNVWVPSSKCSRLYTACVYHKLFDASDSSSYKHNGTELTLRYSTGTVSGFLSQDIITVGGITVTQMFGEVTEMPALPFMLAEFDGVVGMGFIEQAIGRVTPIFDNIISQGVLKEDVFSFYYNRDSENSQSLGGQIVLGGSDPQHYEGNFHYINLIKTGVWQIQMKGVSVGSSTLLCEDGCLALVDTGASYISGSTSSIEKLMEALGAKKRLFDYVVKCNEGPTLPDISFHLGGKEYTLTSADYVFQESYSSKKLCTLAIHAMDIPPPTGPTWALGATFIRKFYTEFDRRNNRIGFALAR
Experimental: Human renin-sheep renin substrate reaction system in vitro
To a mixture containing 200 μl of a 125 mM pyrophosphate buffer (pH 7.4), 25 μl of a 20 mM aqueous solution of L-phenylalanyl-L-alanyl-L-prolin as an angiotensin cnverting enzyme inhibitor, 50 μl of semipurified sheep renin substrate (2000 ng angiotensin I/ml), 50 μl of dimethyl sulfoxide solution of an amino acid compound of the present invention and 150 μl of deionized water was added 25 μl of purified human renin (20-30 ng angiotensin I/ml/hr. The mixture was incubated for 15 minutes on a water bath at 37° C., and the reaction mixture was allowed to stand for 5 minutes on a water bath at 100° C. to stop the reaction. After cooling, 200 μl of the solution were taken up and the amount of angiotensin I produced by the addition of renin was determined by radiommunoassay. The inhibitory effect was calculated by the following equation.
As a control, the same procedure as above was carried out by using 50 μl of dimethyl sulfoxide alone in place of the 50 μl of dimethyl sulfoxide solution containing an amino acid compound of the present invention.

[1] = biological target: T2, renin in human high renin plasma (Homo sapiens, UniProt P00797); assay: Renin inhibitory effect in a human high renin plasma (angiotensin I by radioimmunoassay); type: biochemical; conditions: 60 minutes, 37° C., read-out: IC50 (molar concentration)
T2 construct: 500 μl of human high renin plasma; from tissue; host or cells: human high renin plasma
T2 sequence (P00797 67-406): T1 sequence (P00797 67-406)
Experimental: A mixture of 350 μl of a 0.5 M phosphate buffer containing 14 mM EDTA 2Na and a 0.3% neomycin sulfate, which was adjusted to the pH of 7, 50 μl of a 20 mM an aqueous solution of L-phenylalanyl-L-alanyl-L-prolin as an angiotensin converting enzyme inhibitor and 100 μl of dimethyl sulfoxide solution containing an amino acid compound of the present invention was added to 500 μl of human high renin plasma, and 200 μl of the mixture was incubated at 4° C. in an ice bath, and remaining mixture (800 μl ) was incubated for 60 minutes at 37° C. in a water bath. A 200 μl sample was withdrawn from the incubated mixture, chilled immediately in an ice bath, and the amount (A) of angiotensin I produced was determined by radioimmunoassay.
Also, the amount (B) of angiotensin I produced in the incubated mixture at 4° C. in an ice bath was determined by radioimmunoassy.
As a control, the same procedure as above was carried out by using 100 μl of dimethyl sulfoxide alone in place of the 100 μl of dimethyl sulfoxide solution containing an amino acid compound of the present invention.
The renin inhibitory effect in human plasa was calculated by taking the amount of angiotensin I (A) from the amount of angiotensin I (B). The inhibotory effect was calculated by the following equation.

SMILES | IC50 (human renin) [nM] | IC50 [1] [nM]
CC(C)C[C@H](NC(=O)[C@H](Cc1c[nH]cn1)NC(=O)C(CC(=O)N1CCOCC1)Cc1cccc2ccccc12)[C@@H](O)CC(=O)OC(C)C (stereo partly drawn) [Isopropyl N-[2-(1-naphthylmethyl)-3-(morphlinocarbonyl)propionyl]-L-histidylstatinate] | 66 | –
COC(=O)C(O)[C@H](CC(C)C)NC(=O)[C@H](Cc1c[nH]cn1)NC(=O)C(CC(=O)N(C)C)Cc1cccc2ccccc12 (mixture of isomers) [Methyl (2RS, 3S)-3-{N-[2-(1-naphthylmethyl)-3-(dimethylcarbamoyl)propionyl]-L-histidyl}amino-2-hydroxy-5-methylhexanoate] | 78 | 25
COC(=O)C[C@H](O)[C@H](CC(C)C)NC(=O)[C@H](Cc1c[nH]cn1)NC(=O)C(CC(=O)N1CCOCC1)Cc1cccc2ccccc12 (stereo partly drawn) [Methyl N-[2-(1-naphthylmethyl)-3-(morpholinocarbonyl)propionyl]-L-histidylstatinate] | – | 150
